Assay results: patent US20050197371A1, “Urea derivatives as PDGFR modulators” (Ambit Biosciences Corporation, priority 2003, published 2005)

target: T1, PDGFRB(DKIN) (PDGFR-β) (Homo sapiens, UniProt P09619); test: Phage-display competitive binding assay, PDGFRB(DKIN); conditions: T7 phage displaying human PDGFR-β, DKIN construct; read-out: Binding Assay: PDGFRB(DKIN)
T1 construct: PDGFRB(DKIN)
Experimental: The term “ND” represents non-determined values.
Briefly, T7 phage displaying human PDGFR-β were incubated with an affinity matrix coated with known PDGFR-β inhibitor in the presence of various concentrations of the soluble competitor molecules.

SMILES | Kd [nM]
C/C=C/C(=O)Nc1ccc(NC(=O)Nc2cc(C(C)(C)C)on2)cc1 [Compound N93] | 1000 to 10000
CC(C)(C)c1cc(NC(=O)Nc2ccc(NC(=O)c3c(Cl)cccc3Cl)cc2)no1 [Compound N94] | 100 to 1000
CC(C)(C)c1cc(NC(=O)Nc2ccc(NC(=O)c3c(F)cccc3C(F)(F)F)cc2)no1 [Compound N95] | 1000 to 10000
CC(C)(C)c1cc(NC(=O)Nc2ccc(C(=O)NCc3ccc4c(c3)OCO4)cc2)no1 [Compound N97] | 1000 to 10000
CC(C)(C)c1cc(NC(=O)Nc2ccc(C(=O)Nc3ccc(OCC4CCC4)cc3)cc2)no1 [Compound N100] | 100 to 1000
Cc1ccncc1C(=O)Nc1ccc(NC(=O)Nc2cc(C(C)(C)C)on2)cc1 [Compound N104] | 100 to 1000
CC(C)(C)c1cc(NC(=O)Nc2ccc(NC(=O)c3cnc4ccccc4c3)cc2)no1 [Compound N108] | < 100
CC(C)(C)c1cc(NC(=O)Nc2ccc(NC(=O)c3cccc4nsnc34)cc2)no1 [Compound N109] | < 100
CC(C)(C)c1cc(NC(=O)Nc2ccc(NC(=O)c3ccc4cnccc4n3)cc2)no1 [Compound N110] | < 100
CC(C)(C)c1cc(NC(=O)Nc2ccc(NC(=O)c3cccc4c3OCCO4)cc2)no1 [Compound N111] | 100 to 1000
CC(C)(C)c1cc(NC(=O)Nc2ccc(NC(=O)c3cc(Cl)cn(Cc4ccccc4)c3=O)cc2)no1 [Compound N112] | 100 to 1000
COC(=O)c1ccc(C(=O)Nc2ccc(NC(=O)Nc3cc(C(C)(C)C)on3)cc2)nc1 [Compound N113] | < 100
CSc1ncc(Br)c(C(=O)Nc2ccc(NC(=O)Nc3cc(C(C)(C)C)on3)cc2)n1 [Compound N114] | < 100
CC(C)(C)c1cc(NC(=O)Nc2ccc(NC(=O)c3cccc4cccnc34)cc2)no1 [Compound N115] | < 100
Cc1nn(C)c(Cl)c1C(=O)Nc1ccc(NC(=O)Nc2cc(C(C)(C)C)on2)cc1 [Compound N116] | < 100
CC(C)(C)c1cc(NC(=O)Nc2ccc(NC(=O)c3cc4cc(Br)ccc4s3)cc2)no1 [Compound N126] | 100 to 1000
Cc1ccc2[nH]c(C(=O)Nc3ccc(NC(=O)Nc4cc(C(C)(C)C)on4)cc3)cc2c1 [Compound N127] | < 100
CC(C)(C)c1cc(NC(=O)Nc2ccc(NC(=O)c3ccc4ncccc4c3)cc2)no1 [Compound N151] | < 100

SMILES | Kd [nM]
CC(C)(C)c1cc(NC(=O)Nc2ccc(C(=O)Nc3ccc(F)cc3F)cc2)no1 [Compound N153] | 100 to 1000
CC(C)(C)c1cc(NC(=O)Nc2ccc(C(=O)Nc3nccnc3N)cc2)no1 [Compound N157] | < 100
CN(C)c1ccc(C(=O)Nc2ccc(NC(=O)Nc3cc(C(C)(C)C)on3)cc2)cn1 [Compound N159] | < 100
Cc1cnc(C(=O)Nc2ccc(NC(=O)Nc3cc(C(C)(C)C)on3)cc2)c(C(=O)O)n1 [Compound N160] | < 100
CCOC(=O)c1cccc(C(=O)Nc2ccc(NC(=O)Nc3cc(C(C)(C)C)on3)cc2)n1 [Compound N164] | < 100
CC(C)(C)c1cc(NC(=O)Nc2ccc(NC(=O)c3ccc(Oc4ccnc(C(=O)O)c4)cc3)cc2)no1 [Compound N166] | < 100
Cc1cc(NC(=O)c2cn3nc(Cl)ccc3n2)ccc1NC(=O)Nc1cc(C(C)(C)C)on1 [Compound N169] | 100 to 1000
COc1cc(NC(=O)c2cn3nc(Cl)ccc3n2)ccc1NC(=O)Nc1cc(C(C)(C)C)on1 [Compound N171] | 100 to 1000
CC(C)(C)c1cc(NC(=O)Nc2ccc(NC(=O)c3cc(Cl)nnc3Cl)cc2)no1 [Compound N174] | 100 to 1000
CC(C)(C)c1cc(NC(=O)Nc2ccc(NC(=O)c3cc(O)c4cccc(O)c4n3)cc2)no1 [Compound N176] | 1000 to 10000
COc1ccc(C(=O)c2c[nH]c(C(=O)Nc3ccc(NC(=O)Nc4cc(C(C)(C)C)on4)cc3)c2)cc1 [Compound N177] | 1000 to 10000
CC(C)(C)c1cc(NC(=O)Nc2ccc(NC(=O)c3csc(Cc4cccc(C(F)(F)F)c4)n3)cc2)no1 [Compound N180] | 100 to 1000
CC(C)c1nnsc1C(=O)Nc1ccc(NC(=O)Nc2cc(C(C)(C)C)on2)cc1 [Compound N182] | 1000 to 10000
Cc1nc(-c2ccc(Cl)cc2)sc1C(=O)Nc1ccc(NC(=O)Nc2cc(C(C)(C)C)on2)cc1 [Compound N184] | 100 to 1000
COc1cc2nc(Cl)nc(Nc3ccc(NC(=O)Nc4cc(C(C)(C)C)on4)cc3)c2cc1OC [Compound O1, 1-(4-(2-chloro-6,7-dimethoxyquinazolin-4-ylamino)phenyl)-3-(5-tert-butylisoxazol-3-yl)urea] | 100 to 1000
Cc1cnc(C(=O)Nc2ccc(NC(=O)Nc3cc(C(C)(C)C)on3)cc2)cn1 [Compound O2] | < 100
CC(C)(C)c1cc(NC(=O)Nc2ccc(Nc3ncnc4[nH]cnc34)cc2)no1 [Compound O3] | < 100
Cc1ccc(CNc2ccc(NC(=O)Nc3cc(C(C)(C)C)on3)cc2)cc1 [Compound O9] | 100 to 1000

Next, values leading:

Kd [nM] | SMILES
100 to 1000 | CC(C)(C)c1cc(NC(=O)Nc2ccc(NC(=O)CCc3ccccc3)cc2)no1 [Compound N96]
> 10000 | CC(C)(C)c1cc(NC(=O)Nc2ccc(NC(=O)Cc3ccc(OCc4ccccc4)cc3)cc2)no1 [Compound N98]
100 to 1000 | CC(C)(C)OC(=O)Nc1ccc(NC(=O)Nc2cc(C(C)(C)C)on2)cc1 [Compound N101]
> 10000 | CCN(CC)CCNC(=O)c1ccc(NC(=O)Nc2cc(C(C)(C)C)on2)cc1 [Compound N102]
100 to 1000 | COc1cccc(-c2ccc(C(=O)Nc3ccc(NC(=O)Nc4cc(C(C)(C)C)on4)cc3)o2)c1 [Compound N105]
1000 to 10000 | CC(C)(C)c1cc(NC(=O)Nc2ccc(NC(=O)Cc3csc4ccccc34)cc2)no1 [Compound N107]
< 100 | CC(C)(C)c1cc(NC(=O)Nc2ccc(NC(=O)c3nccc4ccccc34)cc2)no1 [Compound N117]
1000 to 10000 | COc1ccc(-c2cc(C(=O)Nc3ccc(NC(=O)Nc4cc(C(C)(C)C)on4)cc3)c(C)o2)cc1 [Compound N118]
< 100 | Cn1cc(C(=O)Nc2ccc(NC(=O)Nc3cc(C(C)(C)C)on3)cc2)c2ccccc21 [Compound N119]
1000 to 10000 | Cc1ccc(-c2cc(C(=O)Nc3ccc(NC(=O)Nc4cc(C(C)(C)C)on4)cc3)c(C)o2)cc1 [Compound N120]
< 100 | Cc1cccc(C(=O)Nc2ccc(NC(=O)Nc3cc(C(C)(C)C)on3)cc2)n1 [Compound N121]
< 100 | CC(C)(C)c1cc(NC(=O)Nc2ccc(NC(=O)c3ccc4sccc4c3)cc2)no1 [Compound N122]
1000 to 10000 | CC(C)(C)c1cc(NC(=O)Nc2ccc(NC(=O)c3cnc(Cl)c(Cl)c3)cc2)no1 [Compound N123]
100 to 1000 | CC(C)(C)c1cc(NC(=O)Nc2ccc(NC(=O)c3coc(-c4ccc(Cl)cc4)n3)cc2)no1 [Compound N124]
100 to 1000 | CC(C)(C)c1cc(NC(=O)Nc2ccc(NC(=O)c3ccc(Cl)nc3)cc2)no1 [Compound N125]
100 to 1000 | COc1cc(OC)nc(C2CCCCC2C(=O)Nc2ccc(NC(=O)Nc3cc(C(C)(C)C)on3)cc2)n1 (centres unmarked) [Compound N129]
100 to 1000 | CC(C)(C)c1cc(NC(=O)Nc2ccc(NC(=O)c3ccc(Cl)nc3Cl)cc2)no1 [Compound N130]
< 100 | Cc1ccc2sc(C(=O)Nc3ccc(NC(=O)Nc4cc(C(C)(C)C)on4)cc3)cc2c1 [Compound N133]
1000 to 10000 | CC(C)(C)c1cc(NC(=O)Nc2ccc(NC(=O)c3cnc4cc(C(F)(F)F)ccc4c3O)cc2)no1 [Compound N146]

Kd [nM] | SMILES
< 100 | CC(C)(C)c1cc(NC(=O)Nc2ccc(NC(=O)c3cnnc4ccccc34)cc2)no1 [Compound N147]
1000 to 10000 | CC(C)(C)c1cc(NC(=O)Nc2ccc(NC(=O)c3c4ccccc4nc4ccccc34)cc2)no1 [Compound N148]
1000 to 10000 | CC(C)(C)c1cc(NC(=O)Nc2ccc(NC(=O)c3cnc4ccccc4n3)cc2)no1 [Compound N149]
< 100 | CC(C)(C)c1cc(NC(=O)Nc2ccc(NC(=O)c3cc4ccccc4[nH]3)cc2)no1 [Compound N161]
< 100 | COc1cc(C(=O)Nc2ccc(NC(=O)Nc3cc(C(C)(C)C)on3)cc2)nc(OC)n1 [Compound N162]
100 to 1000 | CC(C)(C)c1cc(NC(=O)Nc2ccc(NC(=O)c3cccnc3C(=O)O)cc2)no1 [Compound N165]
< 100 | CC(C)(C)c1cc(NC(=O)Nc2ccc(NC(=O)c3ccncc3)cc2)no1 [Compound N167]
100 to 1000 | Cc1cc(NC(=O)[C@](C)(O)CSc2ccc(F)cc2)ccc1NC(=O)Nc1cc(C(C)(C)C)on1 [Compound N170]
1000 to 10000 | COc1cc(NC(=O)CCC(=O)N2CCNC(=O)CC2)ccc1NC(=O)Nc1cc(C(C)(C)C)on1 [Compound N172]
< 100 | Cc1nc(-c2ccc(C(=O)Nc3ccc(NC(=O)Nc4cc(C(C)(C)C)on4)cc3)s2)cs1 [Compound N173]
< 100 | Cc1ccc(-c2nc(C(=O)Nc3ccc(NC(=O)Nc4cc(C(C)(C)C)on4)cc3)cs2)cc1 [Compound N178]
100 to 1000 | CC(C)(C)c1cc(NC(=O)Nc2ccc(NC(=O)c3nnsc3Sc3ccc(C(F)(F)F)cc3)cc2)no1 [Compound N179]
100 to 1000 | Cc1nc(-c2ccccc2)sc1C(=O)Nc1ccc(NC(=O)Nc2cc(C(C)(C)C)on2)cc1 [Compound N181]
< 100 | CC(C)(C)c1cc(NC(=O)Nc2ccc(Nc3nc(Cl)nc4[nH]cnc34)cc2)no1 [Compound O4]
< 100 | COc1cc2ncnc(Nc3ccc(NC(=O)Nc4cc(C(C)(C)C)on4)cc3)c2cc1OC [Compound O5]
< 100 | CC(C)(C)c1cc(NC(=O)Nc2ccc(Nc3nc(N)nc4[nH]cnc34)cc2)no1 [Compound O6]
100 to 1000 | CC(C)(C)c1cc(NC(=O)Nc2ccc(Nc3ccnc(N)n3)cc2)no1 [Compound O7]
100 to 1000 | COC(=O)c1cccc(Sc2ncc(NC(=O)Nc3cc(C(C)(C)C)on3)s2)c1 [Compound O8]

same assay, conditions: read-out: Binding Assay: PDGFRB(DKIN); T7 phage displaying human PDGFR-β, DKIN construct

Kd [nM] | SMILES
< 100 | CC(C)(C)c1cc(NC(=O)Nc2ccc(NC(=O)c3cc4ccccc4cn3)cc2)no1 [Compound N106]
